Test results from ChEMBL document CHEMBL1921725, “Synthesis and SAR development of novel P2X7 receptor antagonists for the treatment of pain: part 2” (Bioorg Med Chem Lett, 2011).
Active and inactive are the calls of the source. The rule behind the calls is not given here.

How the values were obtained:
[1] = molecular target: T1, P2X purinoceptor 7 (Homo sapiens, UniProt Q99572); test: Antagonist activity at P2X7 receptor in LPS-stimulated human whole blood assessed as inhibition of ATP-induced IL1-beta production treated 30 mins before LPS challenge measured after 3 hrs by ELISA; type: functional, tissue-based
T1 sequence (Q99572 whole entry): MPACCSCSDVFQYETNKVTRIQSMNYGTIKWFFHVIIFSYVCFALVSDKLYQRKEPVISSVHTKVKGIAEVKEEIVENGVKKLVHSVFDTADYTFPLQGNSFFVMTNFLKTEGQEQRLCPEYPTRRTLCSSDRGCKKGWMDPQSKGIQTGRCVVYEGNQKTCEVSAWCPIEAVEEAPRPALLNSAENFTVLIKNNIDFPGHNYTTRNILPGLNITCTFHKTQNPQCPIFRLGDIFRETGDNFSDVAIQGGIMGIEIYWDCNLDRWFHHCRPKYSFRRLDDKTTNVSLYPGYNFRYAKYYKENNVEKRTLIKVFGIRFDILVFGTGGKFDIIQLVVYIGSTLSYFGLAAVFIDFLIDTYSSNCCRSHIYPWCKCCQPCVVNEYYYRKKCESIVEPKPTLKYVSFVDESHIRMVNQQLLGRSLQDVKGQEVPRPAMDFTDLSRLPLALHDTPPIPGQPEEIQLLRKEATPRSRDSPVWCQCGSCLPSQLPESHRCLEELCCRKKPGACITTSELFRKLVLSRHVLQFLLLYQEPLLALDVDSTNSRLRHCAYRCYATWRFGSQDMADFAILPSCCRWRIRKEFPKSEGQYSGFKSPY

[2] = AUC in rapid rat model at 10 mg/kg, po; type: ADME, organism-based; design: dose 10 mg/kg, route oral; settings: in vivo
[3] = Plasma concentration in rapid rat model plasma at 10 mg/kg, po after 6 hrs; type: ADME, organism-based; design: dose 10 mg/kg, route oral
[4] = molecular target: T2, P2X purinoceptor 7 (Rattus norvegicus, UniProt Q64663); test: Antagonist activity at P2X7 receptor in rat whole blood; type: functional, tissue-based
T2 sequence (Q64663 whole entry): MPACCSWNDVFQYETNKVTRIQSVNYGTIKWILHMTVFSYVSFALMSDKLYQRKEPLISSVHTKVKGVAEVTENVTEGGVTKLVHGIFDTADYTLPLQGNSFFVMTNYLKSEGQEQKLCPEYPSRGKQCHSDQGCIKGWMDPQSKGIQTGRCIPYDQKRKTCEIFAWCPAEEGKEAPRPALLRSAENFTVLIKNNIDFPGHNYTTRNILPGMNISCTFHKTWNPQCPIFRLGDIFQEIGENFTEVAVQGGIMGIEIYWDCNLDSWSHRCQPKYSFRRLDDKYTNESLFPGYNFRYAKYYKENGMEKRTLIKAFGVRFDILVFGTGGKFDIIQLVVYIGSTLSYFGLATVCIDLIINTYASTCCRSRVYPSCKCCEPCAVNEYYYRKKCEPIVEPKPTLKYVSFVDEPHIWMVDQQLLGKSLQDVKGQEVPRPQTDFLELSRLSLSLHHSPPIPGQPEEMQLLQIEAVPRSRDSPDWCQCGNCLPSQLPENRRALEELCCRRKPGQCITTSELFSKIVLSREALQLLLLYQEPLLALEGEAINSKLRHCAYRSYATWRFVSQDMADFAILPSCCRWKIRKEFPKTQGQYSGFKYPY

[5] = tested on: Rattus norvegicus; test: Analgesic activity in rat streptozocin-induced diabetic neuropathy model at 10 mg/kg, po after 4 hrs relative to gabapentin; type: functional, organism-based; design: dose 10 mg/kg
[6] = tested on: Rattus norvegicus; test: Analgesic activity in rat chronic constriction injury neuroinflammatory pain model at 60 mg/kg, po after 4 hrs relative to gabapentin; type: functional, organism-based; design: dose 60 mg/kg
[7] = tested on: Rattus norvegicus; test: Antihyperalgesic activity in rat mono-iodacetate-induced hyperalgesia model at 50 mg/kg, po after 4 hrs relative to naproxen; type: functional, organism-based; design: dose 50 mg/kg
[8] = Inhibition of sodium channel site 2 at 10 uM
[9] = Inhibition of L-type calcium channel diltiazem binding site at 10 uM
[10] = Inhibition of chloride channel at 10 uM
[11] = molecular target: Sodium-dependent noradrenaline transporter (Homo sapiens) (UniProt P23975); test: Inhibition of norepinephrine transporter at 10 uM
Sequence of Sodium-dependent noradrenaline transporter (Homo sapiens) (P23975 whole entry): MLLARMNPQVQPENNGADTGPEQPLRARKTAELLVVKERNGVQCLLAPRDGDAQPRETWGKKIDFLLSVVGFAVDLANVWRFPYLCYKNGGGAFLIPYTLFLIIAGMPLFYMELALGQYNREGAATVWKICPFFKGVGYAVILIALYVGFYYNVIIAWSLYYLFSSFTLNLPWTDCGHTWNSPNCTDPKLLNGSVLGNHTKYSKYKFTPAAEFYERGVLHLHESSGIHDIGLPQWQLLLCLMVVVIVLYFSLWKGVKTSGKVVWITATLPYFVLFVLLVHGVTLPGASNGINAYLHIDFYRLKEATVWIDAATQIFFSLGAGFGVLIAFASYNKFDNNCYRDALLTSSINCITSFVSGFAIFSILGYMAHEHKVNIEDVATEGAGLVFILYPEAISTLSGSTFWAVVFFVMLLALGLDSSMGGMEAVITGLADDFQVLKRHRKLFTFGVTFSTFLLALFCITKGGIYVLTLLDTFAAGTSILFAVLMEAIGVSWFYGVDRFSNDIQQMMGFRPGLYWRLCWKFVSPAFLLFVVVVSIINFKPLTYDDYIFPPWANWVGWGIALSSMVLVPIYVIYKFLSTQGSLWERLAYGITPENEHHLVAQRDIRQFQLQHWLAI

[12] = molecular target: T3, P2X purinoceptor 4 (Homo sapiens) (UniProt Q99571); test: Inhibition of P2X4 receptor at 10 uM
T3 sequence (whole entry): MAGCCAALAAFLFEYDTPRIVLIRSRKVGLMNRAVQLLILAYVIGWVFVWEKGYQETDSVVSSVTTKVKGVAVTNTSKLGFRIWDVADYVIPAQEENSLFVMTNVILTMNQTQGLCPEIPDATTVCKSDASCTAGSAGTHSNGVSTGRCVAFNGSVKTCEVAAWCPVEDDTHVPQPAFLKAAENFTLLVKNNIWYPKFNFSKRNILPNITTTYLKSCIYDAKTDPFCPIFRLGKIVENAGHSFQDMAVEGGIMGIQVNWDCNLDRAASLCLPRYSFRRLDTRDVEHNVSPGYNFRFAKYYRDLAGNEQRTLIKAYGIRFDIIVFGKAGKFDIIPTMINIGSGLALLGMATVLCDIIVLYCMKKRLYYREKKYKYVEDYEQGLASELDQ

[13] = tested on: Rattus norvegicus; test: Analgesic activity in rat chronic constriction injury neuroinflammatory pain model at 1 to 3 mg/kg, po after 4 hrs; type: functional, organism-based
[14] = tested on: Rattus norvegicus; test: Antihyperalgesic activity in rat mono-iodacetate-induced hyperalgesia model at 1 to 3 mg/kg, po after 4 hrs; type: functional, organism-based
[15] = tested on: Rattus norvegicus; test: Analgesic activity in rat spinal nerve ligation neuropathic pain model at 10 to 30 mg/kg, po after 4 hrs relative to pregabalin; type: functional, organism-based
[16] = tested on: Rattus norvegicus; test: Analgesic activity in rat streptozocin-induced diabetic neuropathy model at 10 mg/kg, po after 4 hrs; type: functional, organism-based; design: dose 10 mg/kg

| IC50 [1] | AUC [2] | concentration at 6 h [3] | SMILES | further results |
| --- | --- | --- | --- | --- |
| 91 nM |  |  | CCN1C(=O)c2nc(-c3ccc(-c4ccccc4)cc3)n(Cc3cc(F)cc(F)c3)c2N2CC(C)(C)N=C12 |  |
| 1040 nM |  |  | CCN1C(=O)c2nc(-c3ccc(-c4ccccc4)cc3)n(Cc3cc(F)ccc3F)c2N2C[C@@H](C(C)C)N=C12 |  |
| 107 nM | 1.11 µM·h | 93 nM | CCN1C(=O)c2nc(-c3ccc(-c4ccccc4)cc3)n(Cc3cc(F)cc(F)c3)c2N2C[C@@H](C(C)C)N=C12 |  |
| 104 nM | 1.84 µM·h | 395 nM | CCN1C(=O)c2nc(-c3ccc(-c4cccc(C(F)(F)F)c4)nc3)n(Cc3ccc(F)c(F)c3)c2N2CC(C)(C)N=C12 |  |
| 845 nM |  |  | CCN1C(=O)c2nc(-c3ccc(-c4ccccc4)cc3)n(Cc3ccc(F)cc3F)c2N2C[C@@H](C(C)C)N=C12 |  |
| 178 nM | 3.76 µM·h | 392 nM | CCN1C(=O)c2nc(-c3ccc(-c4ccccc4)cc3)n(Cc3ccc(F)c(F)c3)c2N2C[C@@H](C(C)C)N=C12 |  |
| 870 nM |  |  | CCN1C(=O)c2nc(-c3ccc(-c4ccccc4)cc3)n(Cc3cccc(F)c3F)c2N2C[C@@H](C(C)C)N=C12 |  |
| 25 nM | 0.231 µM·h |  | CCN1C(=O)c2nc(-c3ccc(-c4cccc(C)c4)nc3)n(Cc3ccc(F)c(F)c3)c2N2CC(C)(C)N=C12 |  |
| 388 nM |  |  | CCN1C(=O)c2nc(-c3ccc(-c4ccccc4)cc3)n(Cc3ccc(F)c(F)c3)c2N2CC3(CCCCC3)N=C12 |  |
| 276 nM |  |  | CCN1C(=O)c2nc(-c3ccc(-c4ccccc4)cc3)n(Cc3ccc(F)cc3)c2N2CC(C)(C)N=C12 |  |
| 52 nM | 2.71 µM·h | 537 nM | CCN1C(=O)c2nc(-c3ccc(-c4ccccc4F)nc3)n(Cc3ccc(F)c(F)c3)c2N2CC(C)(C)N=C12 |  |
| 28 nM | 3.56 µM·h | 897 nM | CCN1C(=O)c2nc(-c3ccc(-c4cccc(F)c4)nc3)n(Cc3ccc(F)c(F)c3)c2N2CC(C)(C)N=C12 |  |
| 39 nM |  |  | CCN1C(=O)c2nc(-c3ccc(-c4ccc(C)cc4)nc3)n(Cc3ccc(F)c(F)c3)c2N2CC(C)(C)N=C12 |  |
| 269 nM |  |  | CCN1C(=O)c2nc(-c3ccc(-c4ccccc4)cc3)n(Cc3cccc(F)c3)c2N2C[C@@H](C(C)C)N=C12 |  |
| 700 nM |  |  | CCN1C(=O)c2nc(-c3ccc(-c4ccccc4)cc3)n(Cc3ccc(F)cc3F)c2N2CC(C)(C)N=C12 |  |
| 108 nM |  |  | CCN1C(=O)c2nc(-c3ccc(-c4ccccc4)cc3)n(Cc3ccc(F)c(F)c3)c2N2CCC(C)(C)N=C12 |  |
| 45 nM | 3.56 µM·h | 897 nM | CCN1C(=O)c2nc(-c3ccc(-c4ccc(F)cc4)nc3)n(Cc3ccc(F)c(F)c3)c2N2CC(C)(C)N=C12 |  |
| 237 nM |  |  | CCN1C(=O)c2nc(-c3ccc(-c4ccccc4)cc3)n(Cc3ccc(F)cc3)c2N2C[C@@H](C(C)C)N=C12 |  |
| 137 nM | 5.68 µM·h | 1570 nM | CCN1C(=O)c2nc(-c3ccc(-c4ccc(C(F)(F)F)cc4)nc3)n(Cc3ccc(F)c(F)c3)c2N2CC(C)(C)N=C12 |  |
| 110 nM |  |  | CCN1C(=O)c2nc(-c3ccc(-c4cccc(OC(F)(F)F)c4)nc3)n(Cc3ccc(F)c(F)c3)c2N2CC(C)(C)N=C12 |  |
| 1940 nM |  |  | CCN1C(=O)c2nc(-c3ccc(-c4ccc(OC(F)(F)F)cc4)nc3)n(Cc3ccc(F)c(F)c3)c2N2CC(C)(C)N=C12 |  |
| 101 nM | 1.62 µM·h | 224 nM | CCN1C(=O)c2nc(-c3ccc(-c4ccccc4OC)nc3)n(Cc3ccc(F)c(F)c3)c2N2CC(C)(C)N=C12 |  |
| 50 nM |  |  | CCN1C(=O)c2nc(-c3ccc(-c4ccc(OC)cc4)nc3)n(Cc3ccc(F)c(F)c3)c2N2CC(C)(C)N=C12 |  |
| 55 nM | 7.54 µM·h | 1260 nM | CCN1C(=O)c2nc(-c3ccc(-c4cc(F)cc(F)c4)nc3)n(Cc3ccc(F)c(F)c3)c2N2CC(C)(C)N=C12 |  |
| 95 nM | 4.14 µM·h | 537 nM | CCN1C(=O)c2nc(-c3ccc(-c4ccc(F)cc4F)nc3)n(Cc3ccc(F)c(F)c3)c2N2CC(C)(C)N=C12 |  |
| 85 nM | 6.86 µM·h | 1370 nM | CCN1C(=O)c2nc(-c3ccc(-c4ccccc4)cc3)n(Cc3ccc(F)c(F)c3)c2N2CC(C)(C)N=C12 | IC50 [4]: 121 nM; Activity [5]: Active; Activity [6]: Active; Activity [7]: Active; inhibition [8]: > 80%; inhibition [9]: > 80%; inhibition [10]: > 80%; inhibition [11]: > 80%; inhibition [12]: 55%; Activity [13]: Active; Activity [14]: Active; Activity [15]: Active; Activity [16]: Active |
| 24 nM | 13.7 µM·h | 2640 nM | CCN1C(=O)c2nc(-c3ccc(-c4ccccc4)nc3)n(Cc3ccc(F)c(F)c3)c2N2CC(C)(C)N=C12 |  |
| 937 nM |  |  | CCN1C(=O)c2nc(-c3ccc(-c4ccccc4)cc3)n(Cc3ccccc3F)c2N2C[C@@H](C(C)C)N=C12 |  |
